PubChem BioAssay AID256 (DTP/NCI, 2004)
Several values for one entry are separate records, joined by “and”; a condition that tells them apart may be missing. Identical values can stand only once. Inconclusive results and toxic doses are left out.

System: CD2F1 mice, L1210 leukemia ip, survival T/C
Assay: NCI In Vivo Anticancer Drug Screen. Data for tumor model L1210 Leukemia (intraperitoneal) in CD2F1 (CDF1) mice
Details: endpoint: mean survival time, higher = longer survival
Procedure, shortened: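 Antitumor effect is scored in animals hosting a serially transplanted tumor. Values compare compound-dosed animals against vehicle-only controls as a simple quotient.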

[1] = dose: 100.0 mg/kg/injection, schedule: Q04DX003 (ip), vehicle: saline with Tween-80
[2] = dose: 100.0 mg/kg/injection, schedule: Q01DX009 (ip), vehicle: saline

CC(C)(C)c1ccc(SC(=O)c2ccc(C(=O)Sc3ccc(C(C)(C)C)cc3)cc2)cc1
T/C (dose: 25.0 mg/kg/injection, schedule: Q04DX002 (ip), vehicle: saline with Tween-80): 91 % of control
T/C (dose: 50.0 mg/kg/injection, schedule: Q04DX002 (ip), vehicle: saline with Tween-80): 87 % of control
T/C (dose: 100.0 mg/kg/injection, schedule: Q04DX002 (ip), vehicle: saline with Tween-80): 91 % of control and 102 % of control

CN1C(=O)C2(Cc3cn(C45CC67SSC(CO)(C(=O)N6C4Nc4ccccc45)N(C)C7=O)c4ccccc34)SSC1(CO)C(=O)N2C (centres undefined)
T/C (dose: 0.31 mg/kg/injection, schedule: Q01DX009 (ip), vehicle: Klucel (hydroxypropylcellulose) (HPC)): 93 % of control
T/C (dose: 0.62 mg/kg/injection, schedule: Q01DX009 (ip), vehicle: Klucel (hydroxypropylcellulose) (HPC)): 100 % of control
T/C (dose: 1.25 mg/kg/injection, schedule: Q01DX009 (ip), vehicle: Klucel (hydroxypropylcellulose) (HPC)): 100 % of control

[Cl][Dy]([Cl])[Cl]
T/C (dose: 50.0 mg/kg/injection, schedule: Q01DX009 (ip), vehicle: saline with Tween-80): 89 % of control
T/C (dose: 200.0 mg/kg/injection, schedule: Q01DX009 (ip), vehicle: saline with Tween-80): 90 % of control

CCCCCCCCCCCCCCCC(=O)NCC[N+](C)(C)C
T/C (dose: 75.0 mg/kg/injection, schedule: Q01DX001 (ip), vehicle: saline): 107 % of control
T/C (dose: 150.0 mg/kg/injection, schedule: Q01DX001 (ip), vehicle: saline): 104 % of control
T/C (dose: 300.0 mg/kg/injection, schedule: Q01DX001 (ip), vehicle: saline): 104 % of control

O=C1N(Cl)C2C(N1Cl)N(Cl)C(=O)N2Cl (centres undefined)
T/C (dose: 25.0 mg/kg/injection, schedule: Q04DX003 (ip), vehicle: saline with Tween-80): 98 % of control
T/C (dose: 50.0 mg/kg/injection, schedule: Q04DX003 (ip), vehicle: saline with Tween-80): 104 % of control
T/C [1]: 89 % of control

CCCC[P+](C)(CC[P+](C)(c1ccccc1)c1ccccc1)c1ccccc1 (centres undefined)
T/C (dose: 6.25 mg/kg/injection, schedule: Q04DX002 (ip), vehicle: saline): 104 % of control
T/C (dose: 12.5 mg/kg/injection, schedule: Q04DX002 (ip), vehicle: saline): 89 % of control

Cc1ccc(S(=O)(=O)N(O)c2ccccc2)cc1
T/C [1]: 100 % of control
T/C (dose: 200.0 mg/kg/injection, schedule: Q04DX003 (ip), vehicle: saline with Tween-80): 100 % of control
T/C (dose: 400.0 mg/kg/injection, schedule: Q04DX003 (ip), vehicle: saline with Tween-80): 103 % of control

NC(CSC1(c2ccccc2)c2ccccc2-c2ccccc21)C(=O)O (centres undefined)
T/C (dose: 25.0 mg/kg/injection, schedule: Q01DX009 (ip), vehicle: saline): 96 % of control
T/C (dose: 50.0 mg/kg/injection, schedule: Q01DX009 (ip), vehicle: saline): 102 % of control
T/C [2]: 100 % of control
T/C (dose: 200.0 mg/kg/injection, schedule: Q01DX009 (ip), vehicle: saline): 100 % of control
T/C (dose: 400.0 mg/kg/injection, schedule: Q01DX009 (ip), vehicle: saline): 110 % of control

CCCCCCCCCCCCNC(=O)C[n+]1cccc(C(=O)N(C)C)c1
T/C (dose: 5.0 mg/kg/injection, schedule: Q01DX009 (ip), vehicle: saline with Tween-80): 114 % of control
T/C (dose: 10.0 mg/kg/injection, schedule: Q01DX009 (ip), vehicle: saline with Tween-80): 97 % of control
T/C (dose: 20.0 mg/kg/injection, schedule: Q01DX009 (ip), vehicle: saline with Tween-80): 98 % of control

NC(C(=O)O)C(O)C(=O)O (centres undefined)
T/C (dose: 37.5 mg/kg/injection, schedule: Q01DX009 (ip), vehicle: saline): 101 % of control
T/C (dose: 75.0 mg/kg/injection, schedule: Q01DX009 (ip), vehicle: saline): 97 % of control
T/C (dose: 150.0 mg/kg/injection, schedule: Q01DX009 (ip), vehicle: saline): 98 % of control

Nc1n[nH]c(N)n1
T/C (dose: 3.2 mg/kg/injection, schedule: Q## X008 (iv), vehicle: water): 100 % of control
T/C (dose: 6.3 mg/kg/injection, schedule: Q## X008 (iv), vehicle: water): 103 % of control
T/C (dose: 12.5 mg/kg/injection, schedule: Q## X004 (iv), vehicle: water): 100 % of control
T/C (dose: 12.5 mg/kg/injection, schedule: Q## X008 (iv), vehicle: water): 102 % of control
T/C (dose: 25.0 mg/kg/injection, schedule: Q## X004 (iv), vehicle: water): 104 % of control
T/C (dose: 25.0 mg/kg/injection, schedule: Q## X008 (iv), vehicle: water): 101 % of control
T/C (dose: 50.0 mg/kg/injection, schedule: Q03HX024 (ip), vehicle: saline): 103 % of control
T/C (dose: 50.0 mg/kg/injection, schedule: Q## X004 (iv), vehicle: water): 103 % of control
T/C (dose: 50.0 mg/kg/injection, schedule: Q## X008 (iv), vehicle: water): 103 % of control
T/C (dose: 50.0 mg/kg/injection, schedule: Q## X068 (ip), vehicle: water): 110 % of control
T/C (dose: 50.0 mg/kg/injection, schedule: Q#A X002 (iv), vehicle: water): 106 % of control
T/C (dose: 100.0 mg/kg/injection, schedule: Q01DX007 (ip), vehicle: saline): 113 % of control
T/C [2]: 104 % of control
T/C (dose: 100.0 mg/kg/injection, schedule: Q03DX003 (ip), vehicle: saline): 105 % of control
T/C (dose: 100.0 mg/kg/injection, schedule: Q03HX024 (ip), vehicle: saline): 117 % of control and 103 % of control and 112 % of control
T/C (dose: 100.0 mg/kg/injection, schedule: Q04DX003 (ip), vehicle: saline): 105 % of control
T/C (dose: 100.0 mg/kg/injection, schedule: Q## X004 (iv), vehicle: water): 105 % of control
T/C (dose: 100.0 mg/kg/injection, schedule: Q## X008 (iv), vehicle: water): 102 % of control
T/C (dose: 100.0 mg/kg/injection, schedule: Q#A X002 (iv), vehicle: water): 96 % of control
T/C (dose: 100.0 mg/kg/injection, schedule: Q#A X034 (ip), vehicle: water): 118 % of control
T/C (dose: 200.0 mg/kg/injection, schedule: Q01DX017 (ip), vehicle: water): 113 % of control
T/C (dose: 200.0 mg/kg/injection, schedule: Q03DX003 (ip), vehicle: saline): 105 % of control
T/C (dose: 200.0 mg/kg/injection, schedule: Q04DX003 (ip), vehicle: saline): 106 % of control
T/C (dose: 200.0 mg/kg/injection, schedule: Q## X004 (iv), vehicle: water): 105 % of control
T/C (dose: 200.0 mg/kg/injection, schedule: Q## X068 (ip), vehicle: water): 190 % of control
T/C (dose: 200.0 mg/kg/injection, schedule: Q#A X002 (iv), vehicle: water): 103 % of control
T/C (dose: 200.0 mg/kg/injection, schedule: Q#A X010 (ip), vehicle: water): 106 % of control
T/C (dose: 400.0 mg/kg/injection, schedule: Q01DX001 (iv), vehicle: water): 104 % of control
T/C (dose: 400.0 mg/kg/injection, schedule: Q03DX003 (ip), vehicle: saline): 113 % of control
T/C (dose: 400.0 mg/kg/injection, schedule: Q03HX024 (ip), vehicle: saline): 203 % of control and 221 % of control and 237 % of control
T/C (dose: 400.0 mg/kg/injection, schedule: Q04DX003 (ip), vehicle: saline): 106 % of control
T/C (dose: 400.0 mg/kg/injection, schedule: Q## X068 (ip), vehicle: water): 116 % of control
T/C (dose: 400.0 mg/kg/injection, schedule: Q#A X002 (iv), vehicle: water): 110 % of control
T/C (dose: 400.0 mg/kg/injection, schedule: Q#A X010 (ip), vehicle: water): 113 % of control
T/C (dose: 400.0 mg/kg/injection, schedule: Q#A X018 (ip), vehicle: water): 203 % of control
T/C (dose: 400.0 mg/kg/injection, schedule: Q#A X034 (ip), vehicle: water): 208 % of control
T/C (dose: 512.0 mg/kg/injection, schedule: Q12HX018 (ip), vehicle: saline): 104 % of control
T/C (dose: 800.0 mg/kg/injection, schedule: Q01DX001 (iv), vehicle: water): 103 % of control
T/C (dose: 800.0 mg/kg/injection, schedule: Q01DX017 (ip), vehicle: water): 150 % of control
T/C (dose: 800.0 mg/kg/injection, schedule: Q#A X002 (iv), vehicle: water): 110 % of control
T/C (dose: 800.0 mg/kg/injection, schedule: Q#A X010 (ip), vehicle: water): 122 % of control
T/C (dose: 800.0 mg/kg/injection, schedule: Q#A X018 (ip), vehicle: water): 181 % of control
T/C (dose: 800.0 mg/kg/injection, schedule: Q#A X034 (ip), vehicle: water): 97 % of control
T/C (dose: 1024.0 mg/kg/injection, schedule: Q12HX018 (ip), vehicle: saline): 120 % of control
T/C (dose: 1600.0 mg/kg/injection, schedule: Q01DX001 (iv), vehicle: water): 105 % of control
T/C (dose: 1600.0 mg/kg/injection, schedule: Q01DX017 (ip), vehicle: water): 165 % of control

COc1cc(Cc2nccc3ccccc23)cc([N+](=O)[O-])c1OC
T/C (dose: 100.0 mg/kg/injection, schedule: Q01DX001 (ip), vehicle: saline with Tween-80): 97 % of control
T/C (dose: 200.0 mg/kg/injection, schedule: Q01DX001 (ip), vehicle: saline with Tween-80): 92 % of control
T/C (dose: 400.0 mg/kg/injection, schedule: Q01DX001 (ip), vehicle: saline with Tween-80): 89 % of control
